Results taken from ChEMBL document CHEMBL3792297, “Studies on phenothiazines: New microtubule-interacting compounds with phenothiazine A-ring as potent antineoplastic agents” (Bioorg Med Chem, 2016).

Experiments:
Format in all cases: functional
[1] = Growth inhibition of human HOP92 cells at 10 uM after 48 hrs by SRB assay relative to control; conditions: HOP-92, 48 h, read-out: GI
[2] = Growth inhibition of human BT549 cells at 10 uM after 48 hrs by SRB assay relative to control; conditions: BT-549, 48 h, read-out: GI
[3] = Growth inhibition of human LOXIMVI cells at 10 uM after 48 hrs by SRB assay relative to control; conditions: LOX IMVI, read-out: GI
[4] = Growth inhibition of human HCT116 cells at 10 uM after 48 hrs by SRB assay relative to control; conditions: HCT-116, 48 h, read-out: GI
NCI-H322M = assay: Growth inhibition of human NCI-H322M cells at 10 uM after 48 hrs by SRB assay relative to control; conditions: read-out: GI
U-251 = assay: Growth inhibition of human U251 cells at 10 uM after 48 hrs by SRB assay relative to control; conditions: U-251, 48 h, read-out: GI
ACHN = assay: Growth inhibition of human ACHN cells at 10 uM after 48 hrs by SRB assay relative to control; conditions: read-out: GI
MCF7 = assay: Growth inhibition of human MCF7 cells at 10 uM after 48 hrs by SRB assay relative to control; conditions: MCF7, 48 h, read-out: GI
MDA-MB-435 = assay: Growth inhibition of human MDA-MB-435 cells at 10 uM after 48 hrs by SRB assay relative to control; conditions: MDA-MB-435, 48 h, read-out: GI
K562 = assay: Growth inhibition of human K562 cells at 10 uM after 48 hrs by SRB assay relative to control; conditions: K562, 48 h, read-out: GI
[5] = Growth inhibition of human OVCAR8 cells at 10 uM after 48 hrs by SRB assay relative to control; conditions: OVCAR-8, 48 h, read-out: GI
M14 = assay: Growth inhibition of human M14 cells at 10 uM after 48 hrs by SRB assay relative to control; conditions: M14, 48 h, read-out: GI
[6] = Growth inhibition of human SKOV3 cells at 10 uM after 48 hrs by SRB assay relative to control; conditions: SK-OV-3, 48 h, read-out: GI
786-0 = assay: Growth inhibition of human 786-0 cells at 10 uM after 48 hrs by SRB assay relative to control; conditions: 786-0, 48 h, read-out: GI
[7] = Growth inhibition of human Caki1 cells at 10 uM after 48 hrs by SRB assay relative to control; conditions: CAKI-1, 48 h, read-out: GI
EKVX = assay: Growth inhibition of human EKVX cells at 10 uM after 48 hrs by SRB assay relative to control; conditions: read-out: GI
SK-MEL-28 = assay: Growth inhibition of human SK-MEL-28 cells at 10 uM after 48 hrs by SRB assay relative to control; conditions: SK-MEL-28, 48 h, read-out: GI
[8] = Growth inhibition of human HOP62 cells at 10 uM after 48 hrs by SRB assay relative to control; conditions: HOP-62, 48 h, read-out: GI
NCI-H226 = assay: Growth inhibition of human NCI-H226 cells at 10 uM after 48 hrs by SRB assay relative to control; conditions: NCI-H226, 48 h, read-out: GI
[9] = Growth inhibition of human IGROV1 cells at 10 uM after 48 hrs by SRB assay relative to control; conditions: IGROV-1, 48 h, read-out: GI
T47D = assay: Growth inhibition of human T47D cells at 10 uM after 48 hrs by SRB assay relative to control; conditions: read-out: GI
NCI-H23 = assay: Growth inhibition of human NCI-H23 cells at 10 uM after 48 hrs by SRB assay relative to control; conditions: NCI-H23, 48 h, read-out: GI
NCI-H460 = assay: Growth inhibition of human NCI-H460 cells at 10 uM after 48 hrs by SRB assay relative to control; conditions: NCI-H460, 48 h, read-out: GI
[10] = Growth inhibition of human UACC62 cells at 10 uM after 48 hrs by SRB assay relative to control; conditions: UACC-62, 48 h, read-out: GI
NCI-H522 = assay: Growth inhibition of human NCI-H522 cells at 10 uM after 48 hrs by SRB assay relative to control; conditions: NCI-H522, 48 h, read-out: GI
[11] = Growth inhibition of human SNB19 cells at 10 uM after 48 hrs by SRB assay relative to control; conditions: SNB-19, 48 h, read-out: GI
[12] = Growth inhibition of human RPMI8226 cells at 10 uM after 48 hrs by SRB assay relative to control; conditions: RPMI-8226, 48 h, read-out: GI
[13] = Growth inhibition of human OVCAR3 cells at 10 uM after 48 hrs by SRB assay relative to control; conditions: OVCAR-3, 48 h, read-out: GI
A549 = assay: Growth inhibition of human A549 cells at 10 uM after 48 hrs by SRB assay relative to control; conditions: A549, 48 h, read-out: GI
[14] = Growth inhibition of human DU145 cells at 10 uM after 48 hrs by SRB assay relative to control; conditions: DU-145, 48 h, read-out: GI
MDA-MB-468 = assay: Growth inhibition of human MDA-MB-468 cells at 10 uM after 48 hrs by SRB assay relative to control; conditions: MDA-MB-468, 48 h, read-out: GI
[15] = Growth inhibition of human PC3 cells at 10 uM after 48 hrs by SRB assay relative to control; conditions: PC-3, 48 h, read-out: GI
[16] = Growth inhibition of human OVCAR5 cells at 10 uM after 48 hrs by SRB assay relative to control; conditions: OVCAR-5, 48 h, read-out: GI
SK-MEL-2 = assay: Growth inhibition of human SK-MEL-2 cells at 10 uM after 48 hrs by SRB assay relative to control; conditions: SK-MEL-2, 48 h, read-out: GI
[17] = Growth inhibition of human COLO205 cells at 10 uM after 48 hrs by SRB assay relative to control; conditions: COLO 205, 48 h, read-out: GI
[18] = Growth inhibition of human HCC2998 cells at 10 uM after 48 hrs by SRB assay relative to control; conditions: HCC 2998, 48 h, read-out: GI
[19] = Growth inhibition of human UO31 cells at 10 uM after 48 hrs by SRB assay relative to control; conditions: UO-31, 48 h, read-out: GI
[20] = Growth inhibition of human SF295 cells at 10 uM after 48 hrs by SRB assay relative to control; conditions: SF-295, 48 h, read-out: GI

`O=C(c1ccc(F)c(Cl)c1)N1c2ccccc2Sc2ccccc21` gave an inhibition of growth at 10 µM [1] of 63%, an inhibition of growth at 10 µM [2] of 42% and an inhibition of growth at 10 µM [3] of 59%. It also gave an inhibition of growth at 10 µM [4] of 69%, an inhibition of growth at 10 µM (NCI-H322M) of 0% and an inhibition of growth at 10 µM (U-251) of 61%. It also gave an inhibition of growth at 10 µM (ACHN) of 0%, an inhibition of growth at 10 µM (MCF7) of 49% and an inhibition of growth at 10 µM (MDA-MB-435) of 92%. It also gave an inhibition of growth at 10 µM (K562) of 79%, an inhibition of growth at 10 µM [5] of 10% and an inhibition of growth at 10 µM (M14) of 47%. The inhibition of growth at 10 µM [6] was 11%, the inhibition of growth at 10 µM (786-0) was 20% and the inhibition of growth at 10 µM [7] was 47%. The inhibition of growth at 10 µM (EKVX) was 26%, the inhibition of growth at 10 µM (SK-MEL-28) was 38% and the inhibition of growth at 10 µM [8] was 23%. The inhibition of growth at 10 µM (NCI-H226) was 23%, the inhibition of growth at 10 µM [9] was 29% and the inhibition of growth at 10 µM (T47D) was 39%. For the same molecule, the inhibition of growth at 10 µM (NCI-H23) was 21%, the inhibition of growth at 10 µM (NCI-H460) was 1% and the inhibition of growth at 10 µM [10] was 74%. The inhibition of growth at 10 µM (NCI-H522) was 57%, the inhibition of growth at 10 µM [11] was 23% and the inhibition of growth at 10 µM [12] was 47%. For the same molecule, the inhibition of growth at 10 µM [13] was 37%, the inhibition of growth at 10 µM (A549) was 34% and the inhibition of growth at 10 µM [14] was 10%. It also gave an inhibition of growth at 10 µM (MDA-MB-468) of 37%, an inhibition of growth at 10 µM [15] of 60% and an inhibition of growth at 10 µM [16] of 13%. It also gave an inhibition of growth at 10 µM (SK-MEL-2) of 35%, an inhibition of growth at 10 µM [17] of 55% and an inhibition of growth at 10 µM [18] of 38%. For the same molecule, the inhibition of growth at 10 µM [19] was 27% and the inhibition of growth at 10 µM [20] was 36%.

In the case of `COc1ccc(C(=O)N2c3ccccc3Sc3ccccc32)c(OC)c1`, the inhibition of growth at 10 µM [1] is reported as 69%, the inhibition of growth at 10 µM [2] is reported as 83% and the inhibition of growth at 10 µM [3] is reported as 62%. For the same molecule, the inhibition of growth at 10 µM [4] was 91%, the inhibition of growth at 10 µM (NCI-H322M) was 38% and the inhibition of growth at 10 µM (U-251) was 75%. For the same molecule, the inhibition of growth at 10 µM (ACHN) was 57%, the inhibition of growth at 10 µM (MCF7) was 80% and the inhibition of growth at 10 µM (MDA-MB-435) was 100%. It also gave an inhibition of growth at 10 µM (K562) of 89%, an inhibition of growth at 10 µM [5] of 72% and an inhibition of growth at 10 µM (M14) of 100%. For the same molecule, the inhibition of growth at 10 µM [6] was 63%, the inhibition of growth at 10 µM (786-0) was 71% and the inhibition of growth at 10 µM [7] was 63%. It also gave an inhibition of growth at 10 µM (EKVX) of 66%, an inhibition of growth at 10 µM (SK-MEL-28) of 42% and an inhibition of growth at 10 µM [8] of 52%. For the same molecule, the inhibition of growth at 10 µM (NCI-H226) was 69%, the inhibition of growth at 10 µM [9] was 47% and the inhibition of growth at 10 µM (T47D) was 59%. The inhibition of growth at 10 µM (NCI-H23) was 62%, the inhibition of growth at 10 µM (NCI-H460) was 90% and the inhibition of growth at 10 µM [10] was 86%. It also gave an inhibition of growth at 10 µM (NCI-H522) of 100%, an inhibition of growth at 10 µM [11] of 68% and an inhibition of growth at 10 µM [12] of 84%. For the same molecule, the inhibition of growth at 10 µM [13] was 100%, the inhibition of growth at 10 µM (A549) was 69% and the inhibition of growth at 10 µM [14] was 90%. For the same molecule, the inhibition of growth at 10 µM (MDA-MB-468) was 100%, the inhibition of growth at 10 µM [15] was 89% and the inhibition of growth at 10 µM [16] was 52%. For the same molecule, the inhibition of growth at 10 µM (SK-MEL-2) was 62%, the inhibition of growth at 10 µM [17] was 100% and the inhibition of growth at 10 µM [18] was 87%. For the same molecule, the inhibition of growth at 10 µM [19] was 52% and the inhibition of growth at 10 µM [20] was 88%.

For `COc1ccc(C(=O)N2c3ccccc3Sc3ccccc32)c(C(F)(F)F)c1`, the inhibition of growth at 10 µM [1] was 85%, the inhibition of growth at 10 µM [2] was 89% and the inhibition of growth at 10 µM [3] was 83%. The inhibition of growth at 10 µM [4] was 93%, the inhibition of growth at 10 µM (NCI-H322M) was 47% and the inhibition of growth at 10 µM (U-251) was 81%. It also gave an inhibition of growth at 10 µM (ACHN) of 68%, an inhibition of growth at 10 µM (MCF7) of 83% and an inhibition of growth at 10 µM (MDA-MB-435) of 100%. For the same molecule, the inhibition of growth at 10 µM (K562) was 100%, the inhibition of growth at 10 µM [5] was 85% and the inhibition of growth at 10 µM (M14) was 98%. For the same molecule, the inhibition of growth at 10 µM [6] was 66%, the inhibition of growth at 10 µM (786-0) was 61% and the inhibition of growth at 10 µM [7] was 68%. The inhibition of growth at 10 µM (EKVX) was 54%, the inhibition of growth at 10 µM (SK-MEL-28) was 48% and the inhibition of growth at 10 µM [8] was 57%. It also gave an inhibition of growth at 10 µM (NCI-H226) of 87%, an inhibition of growth at 10 µM [9] of 62% and an inhibition of growth at 10 µM (T47D) of 48%. The inhibition of growth at 10 µM (NCI-H23) was 76%, the inhibition of growth at 10 µM (NCI-H460) was 90% and the inhibition of growth at 10 µM [10] was 68%. The inhibition of growth at 10 µM (NCI-H522) was 98%, the inhibition of growth at 10 µM [11] was 69% and the inhibition of growth at 10 µM [12] was 86%. The inhibition of growth at 10 µM [13] was 100%, the inhibition of growth at 10 µM (A549) was 75% and the inhibition of growth at 10 µM [14] was 86%. It also gave an inhibition of growth at 10 µM (MDA-MB-468) of 70%, an inhibition of growth at 10 µM [15] of 85% and an inhibition of growth at 10 µM [16] of 55%. It also gave an inhibition of growth at 10 µM (SK-MEL-2) of 53%, an inhibition of growth at 10 µM [17] of 100% and an inhibition of growth at 10 µM [18] of 74%. For the same molecule, the inhibition of growth at 10 µM [19] was 60% and the inhibition of growth at 10 µM [20] was 95%.
